Assay results taken from the CheMixHub viscosity set.
Several values for one entry are separate records, joined by “and”; a condition that tells them apart may be missing. Equal entries are not always repeated. ± gives the uncertainty stated by the source.

Test: xn = mol fraction of the nth substance listed

CS(C)=O + O
viscosity (313.15 K, 101 kPa, x1 = 0.25): 2.296 ± 0.029 mPa·s
viscosity (313.15 K, 101 kPa, x1 = 0.26): 2.24 ± 0.06 mPa·s
viscosity (313.15 K, 101 kPa, x1 = 0.3): 2.39 ± 0.06 mPa·s
viscosity (313.15 K, 101 kPa, x1 = 0.35): 2.521 ± 0.036 mPa·s
viscosity (313.15 K, 101 kPa, x1 = 0.41): 2.48 ± 0.06 mPa·s
viscosity (313.15 K, 101 kPa, x1 = 0.48): 2.22 ± 0.034 mPa·s and 2.34 ± 0.06 mPa·s
viscosity (313.15 K, 101 kPa, x1 = 0.57): 2.16 ± 0.06 mPa·s
viscosity (313.15 K, 101 kPa, x1 = 0.67): 1.95 ± 0.05 mPa·s
viscosity (313.15 K, 101 kPa, x1 = 0.73): 1.72 ± 0.035 mPa·s
viscosity (313.15 K, 101 kPa, x1 = 0.81): 1.73 ± 0.04 mPa·s
viscosity (313.15 K, 101.3 kPa, x1 = 0.012): 0.718 ± 0.019 mPa·s
viscosity (313.15 K, 101.3 kPa, x2 = 0.1906): 1.709 ± 0.045 mPa·s
viscosity (313.15 K, 101.3 kPa, x2 = 0.3252): 1.905 ± 0.05 mPa·s
viscosity (313.15 K, 101.3 kPa, x2 = 0.5203): 2.313 ± 0.06 mPa·s
viscosity (313.15 K, 101.3 kPa, x2 = 0.6501): 2.459 ± 0.064 mPa·s
viscosity (313.15 K, 101.3 kPa, x2 = 0.743): 2.24 ± 0.058 mPa·s
viscosity (313.15 K, 101.3 kPa, x2 = 0.8183): 1.848 ± 0.048 mPa·s
viscosity (313.15 K, 101.3 kPa, x2 = 0.8668): 1.513 ± 0.039 mPa·s
viscosity (313.15 K, 101.3 kPa, x2 = 0.9101): 1.214 ± 0.032 mPa·s
viscosity (313.15 K, 101.3 kPa, x2 = 0.9455): 0.978 ± 0.025 mPa·s
viscosity (313.15 K, 101.3 kPa, x2 = 0.9751): 0.794 ± 0.021 mPa·s
viscosity (318.15 K, 101 kPa, x1 = 0.055): 0.847 ± 0.022 mPa·s
viscosity (318.15 K, 101 kPa, x1 = 0.48): 2.066 ± 0.079 mPa·s
viscosity (318.15 K, 101 kPa, x2 = 0.047): 1.423 ± 0.014 mPa·s
viscosity (318.15 K, 101 kPa, x2 = 0.089): 1.457 ± 0.015 mPa·s
viscosity (318.15 K, 101 kPa, x2 = 0.186): 1.553 ± 0.018 mPa·s
viscosity (318.15 K, 101 kPa, x2 = 0.522): 2.083 ± 0.036 mPa·s
viscosity (318.15 K, 101 kPa, x2 = 0.59): 2.164 ± 0.04 mPa·s
viscosity (318.15 K, 101.3 kPa, x1 = 0.012): 0.654 ± 0.017 mPa·s
viscosity (318.15 K, 101.3 kPa, x2 = 0.5203): 2.065 ± 0.054 mPa·s
viscosity (318.15 K, 101.3 kPa, x2 = 0.743): 1.976 ± 0.051 mPa·s
viscosity (318.15 K, 101.3 kPa, x2 = 0.8183): 1.637 ± 0.043 mPa·s
viscosity (318.15 K, 101.3 kPa, x2 = 0.8668): 1.348 ± 0.035 mPa·s
viscosity (318.15 K, 101.3 kPa, x2 = 0.9101): 1.09 ± 0.028 mPa·s
viscosity (318.15 K, 101.3 kPa, x2 = 0.9455): 0.884 ± 0.023 mPa·s
viscosity (318.15 K, 101.3 kPa, x2 = 0.9751): 0.722 ± 0.019 mPa·s
viscosity (323.15 K, 101 kPa, x1 = 0.01869): 0.62 ± 0.19 mPa·s
viscosity (323.15 K, 101 kPa, x1 = 0.0406): 0.71 ± 0.21 mPa·s
viscosity (323.15 K, 101.3 kPa, x1 = 0.012): 0.6 ± 0.016 mPa·s
viscosity (323.15 K, 101.3 kPa, x2 = 0.1906): 1.428 ± 0.037 mPa·s
viscosity (323.15 K, 101.3 kPa, x2 = 0.3252): 1.577 ± 0.041 mPa·s
viscosity (323.15 K, 101.3 kPa, x2 = 0.5203): 1.853 ± 0.048 mPa·s
viscosity (323.15 K, 101.3 kPa, x2 = 0.6501): 1.931 ± 0.05 mPa·s
viscosity (323.15 K, 101.3 kPa, x2 = 0.743): 1.754 ± 0.046 mPa·s
viscosity (323.15 K, 101.3 kPa, x2 = 0.8183): 1.46 ± 0.038 mPa·s
viscosity (323.15 K, 101.3 kPa, x2 = 0.8668): 1.211 ± 0.032 mPa·s
viscosity (323.15 K, 101.3 kPa, x2 = 0.9101): 0.985 ± 0.026 mPa·s
viscosity (323.15 K, 101.3 kPa, x2 = 0.9455): 0.805 ± 0.021 mPa·s
viscosity (323.15 K, 101.3 kPa, x2 = 0.9751): 0.66 ± 0.017 mPa·s
